Tested on: PNH erythrocytes
Experiment: CAP-mediated hemolysis assay with PNH erythrocytes (subject A)
Type: cell-based, human
Details: for inhibition at 0.0234 µM: Compound 1 0.0234 μM; for inhibition at 0.0469 µM: Compound 1 0.0469 μM; for inhibition at 0.0938 µM: Compound 1 0.0938 μM; for inhibition at 0.1875 µM: Compound 1 0.1875 μM; for inhibition at 0.188 µM: Compound 1 0.188 μM; for inhibition at 0.375 µM: Compound 1 0.375 μM; for inhibition at 0.75 µM: Compound 1 0.75 μM; for inhibition at 1.5 µM: Compound 1 1.5 μM
Experimental: Complement-preserved normal human serum (NHS) from an individual donor of ABO blood group type AB (NHS-AB) was purchase from BioreclamationIVT (Westbury, NY). Gelatin veronal buffer (GVB), pH 7.3, without Ca^++ and Mg^++ (GVB^0) and 100 mM MgCl2 +100 mM EGTA (MgEGTA) were obtained from Complement Technology Inc. (Tyler, TX).
GVB^0·MgEGTA was prepared by mixing GVB^0 and 100 mM MgEGTA in a 9:1 ratio. PNH erythrocytes were used within five days of blood collection; before assay cells were collected by centrifugation at 800×g and 4° C. for 3 minutes and resuspended in fresh cold GVB^0·MgEGTA to a density of 5×10^8 cells/mL.
50 μL of NHS-AB was added to each well. The plates were mixed and incubated at room temperature for 5 minutes. 24 μL of this NHS-AB with compound was then transferred to duplicate wells of V-bottom microtiter plates each containing 76 μL GVB0·MgEGTA. 20 μL PNH erythrocytes was then added to each well and the plates were sealed, mixed, and incubated at 37° C. for 30 minutes with an added shaking for 15 minutes. […] Following incubation, PNH cells were removed by centrifugation at 800×g and 4° C. for 3 minutes, 100 μL supernatant per well was transferred to flat-bottom clear microtiter plates, and A405 of the supernatant was measured in a Molecular Devices Spectramax Plus plate reader.
Combinatorial interactions were analyzed via two methods.
Inhibition was analyzed by the method of Prichard and Shipman (Prichard, M. N. and C. Shipman, Jr. A Three-Dimensional Model to Analyze Drug-Drug Interactions. Antiviral Research 1990, 14:181-205) Three-dimensional surface graphs of each experiment were generated and analyzed using an Excel spreadsheet program adapted from the MacSynergy II spreadsheet (University of Alabama, Birmingham, AL). The X-axis and Y-axis of each surface graph represent the concentrations of the two test compounds, and the Z-axis represents the difference between measured inhibition and a theoretically determined additive inhibition. For an additive relationship, the surface graph resembles a horizontal plane at Z=0, whereas positive surface peaks indicate greater inhibition than expected and therefore synergy, and negative surface peaks indicate less inhibition than expected and therefore antagonism.
Synergy and antagonism volumes were calculated separately as the summed volumes of peaks respectively above and below the Z=0 plane. Volumes were determined using 95% confidence limits to assure significance.
Inhibition was analyzed by the method of Chou and Talalay (Chou, T.-C. and P. Talalay. Analysis of Combined Drug Effects: A New Look at a Very Old Problem. Trends Pharmacol. Sci. 1983, 4:450-454; Chou, T. C. Theoretical basis, experimental design, and computerized simulation of synergism and antagonism in drug combination studies. Pharmacological Reviews 2006, 58:621-681). Analysis using the median-effect equation of Chou and Talalay was performed with CompuSyn software (ComboSyn, Inc, Paramus, NJ). […] Combination index (CI) values were determined at inhibition values of 50%, 75%, and 90%.

[1] = Homo sapiens, Erythrocyte, Experiment 2, Eculizumab 0-400 μg/mL
[2] = Homo sapiens, Erythrocyte, Experiment 2, Compstatin 0-300 μM
[3] = Homo sapiens, Erythrocyte, Experiment #1, Compstatin 0-300 μM
[4] = Homo sapiens, Erythrocyte, Experiment #1, Eculizumab 0-400 μg/mL

In the case of `CC(=O)c1nn(CC(=O)N2C[C@H](F)C[C@H]2C(=O)Nc2cccc(Br)n2)c2ccc(-c3cnc(C)nc3)cc12` [Compound 1, (2S,4R)-1-(2-(3-acetyl-5-(2-methylpyrimidin-5-yl)-1H-indazol-1-yl)acetyl)-N-(6-bromopyridin-2-yl)-4-fluoropyrrolidine-2-carboxamide], the inhibition at 0.0234 µM [1] is reported as 0%, the inhibition at 0.0469 µM [1] is reported as 0% and the inhibition at 0.0938 µM [2] is reported as 0%. It also gave an inhibition at 0.0938 µM [1] of 0%, an inhibition at 0.1875 µM [2] of 6% and an inhibition at 0.188 µM [1] of 7%. The inhibition at 0.375 µM [2] was 27%, the inhibition at 0.375 µM [1] was 27% and the inhibition at 0.75 µM [2] was 65%. The inhibition at 0.75 µM [1] was 42%, the inhibition at 1.5 µM [2] was 90% and the inhibition at 1.5 µM [1] was 77%. For the same compound, the inhibition at 3 µM (Homo sapiens, Erythrocyte, Experiment 2, Compound 1 3 μM, Compstatin 0-300 μM) was 97%, the inhibition at 6 µM (Homo sapiens, Erythrocyte, Experiment 2, Compound 1 6 μM, Compstatin 0-300 μM) was 97% and the inhibition at 0.0234 µM [3] was 0%. It also gave an inhibition at 0.0234 µM [4] of 4%, an inhibition at 0.0469 µM [3] of 0% and an inhibition at 0.0469 µM [4] of 2%. The inhibition at 0.0938 µM [3] was 0%, the inhibition at 0.0938 µM [4] was 6% and the inhibition at 0.1875 µM [3] was 11%. For the same compound, the inhibition at 0.188 µM [4] was 14%, the inhibition at 0.375 µM [3] was 19% and the inhibition at 0.375 µM [4] was 24%. It also gave an inhibition at 0.75 µM [3] of 51%, an inhibition at 0.75 µM [4] of 55% and an inhibition at 1.5 µM [3] of 80%. For the same compound, the inhibition at 1.5 µM [4] was 86%, the IC50 (Homo sapiens, Erythrocyte, AP activity in vitro) was 14 nM and the “inhibition at the high end of the test concentration ranges” value (single agent, PNH erythrocytes) was “complete inhibition”.

Reference: patent US20250032490A1, “THERAPEUTIC REGIMENS FOR TREATMENT OF PAROXYSMAL NOCTURNAL HEMOGLOBINURIA” (Achillion Pharmaceuticals, Inc., priority 2017, published 2025)
